Holding throughout (format): biochemical
One assay has as its target T1, recombinant 5-LOX (Homo sapiens, UniProt P09917).
T1 sequence (P09917 1-674): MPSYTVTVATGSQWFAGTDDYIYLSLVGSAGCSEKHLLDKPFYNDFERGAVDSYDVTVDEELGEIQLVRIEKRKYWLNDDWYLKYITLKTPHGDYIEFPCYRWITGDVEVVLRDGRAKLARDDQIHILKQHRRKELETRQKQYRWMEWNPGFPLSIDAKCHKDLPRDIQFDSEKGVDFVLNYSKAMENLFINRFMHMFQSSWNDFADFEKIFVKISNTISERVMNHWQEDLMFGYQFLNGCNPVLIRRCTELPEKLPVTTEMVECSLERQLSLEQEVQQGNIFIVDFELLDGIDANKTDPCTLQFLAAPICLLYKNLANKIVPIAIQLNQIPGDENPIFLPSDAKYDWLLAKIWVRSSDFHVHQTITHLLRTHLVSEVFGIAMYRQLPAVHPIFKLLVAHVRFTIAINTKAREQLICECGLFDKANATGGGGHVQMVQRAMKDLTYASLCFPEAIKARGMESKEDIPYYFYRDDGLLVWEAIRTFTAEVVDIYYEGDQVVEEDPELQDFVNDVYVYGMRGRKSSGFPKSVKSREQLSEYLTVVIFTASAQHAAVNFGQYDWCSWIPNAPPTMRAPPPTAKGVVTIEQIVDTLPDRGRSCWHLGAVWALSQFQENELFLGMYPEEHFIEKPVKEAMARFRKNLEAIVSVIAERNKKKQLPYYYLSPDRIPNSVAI
Description: 5-LOX fluorescent assay. As to conditions: several values in one cell = repeat determinations; read-out: IC50 (μM) values for in vitro lipoxygenase inhibition, 5-LOX. The procedure:
5-LOX FI assay Fluorescent Assay
The enzyme assay (100 μL) contained 50 mM Tris, pH 7.5, 0.1 mM EDTA, 0.3 mM CaCl2, 20 μM AA, 100 μM ATP, 1 μM DHR123, and recombinant 5-LOX cell lysate (0.5 μL/100 μL). Inhibitors (dissolved in DMSO) were plated at 1 μL into 96-well assay microplates followed by a 40 μL addition of a solution containing 5-LOX enzyme. Enzyme was pre-incubated with compounds for 15 mins. The assay was initiated by the addition of a 40 μL substrate solution containing AA and ATP, and 20 μL addition of a solution containing DHR123. Enzymatic reaction proceeded for 30 min with kinetic reading at 500 nm excitation & 536 nm emission in SpectraMax Paradigm (MolecularDevice). Percent inhibition was calculated for each compound dose for IC50 curve fitting using 4 Parameter Logistic Model or Sigmoidal Dose-Response Model.

The target in assay [1] is T2, recombinant 12-LOX enzyme (Homo sapiens, UniProt P18054).
T2 sequence (P18054 1-663): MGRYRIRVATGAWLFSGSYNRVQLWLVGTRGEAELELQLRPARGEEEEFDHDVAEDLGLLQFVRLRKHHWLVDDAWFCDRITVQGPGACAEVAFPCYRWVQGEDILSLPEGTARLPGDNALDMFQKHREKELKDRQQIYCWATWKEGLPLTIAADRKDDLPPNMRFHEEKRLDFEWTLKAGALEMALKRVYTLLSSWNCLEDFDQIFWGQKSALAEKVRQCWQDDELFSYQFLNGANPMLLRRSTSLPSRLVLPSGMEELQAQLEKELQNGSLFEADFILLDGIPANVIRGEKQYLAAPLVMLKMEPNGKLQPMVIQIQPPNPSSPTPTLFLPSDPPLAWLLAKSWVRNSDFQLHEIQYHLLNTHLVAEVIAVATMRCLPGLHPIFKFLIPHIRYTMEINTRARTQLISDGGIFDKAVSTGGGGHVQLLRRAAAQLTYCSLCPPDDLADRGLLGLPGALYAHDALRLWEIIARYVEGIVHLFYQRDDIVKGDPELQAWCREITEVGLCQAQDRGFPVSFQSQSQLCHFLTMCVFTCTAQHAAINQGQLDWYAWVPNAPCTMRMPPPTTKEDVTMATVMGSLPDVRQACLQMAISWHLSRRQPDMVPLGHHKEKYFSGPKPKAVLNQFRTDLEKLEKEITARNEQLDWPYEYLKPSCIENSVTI
The assay is described as follows: 12-LOX fluorescent assay. As to conditions: several values in one cell = repeat determinations; read-out: IC50 (μM) values for in vitro lipoxygenase inhibition, 12-LOX. The procedure: (§1) 12-LOX/15-LOX Fluorescent Assay
(§2) The enzyme assay (100 ul) contained 50 mM Tris, pH 7.5, 0.05% Tween-20, 20 μM AA/LA, 1 μM DHR123, and 100 nM recombinant 12-LOX enzyme/50 nM recombinant 15-LOX enzyme. Inhibitors (dissolved in DMSO) were plated at 1 μL into 96-well assay microplates followed by a 40 μL addition of a solution containing 12-LOX/15-LOX enzyme. Enzyme was pre-incubated with compounds for 15 mins. The assay was initiated by the addition of a 40 μL substrate solution containing AA/LA, and 20 μL addition of a solution containing DHR123. Enzymatic reaction proceeded for 30 min with kinetic reading at 500 nm excitation & 536 nm emission in SpectraMax Paradigm (MolecularDevice). Percent inhibition was calculated for each compound dose for IC50 curve fitting using 4 Parameter Logistic Model or Sigmoidal Dose-Response Model.

Assay [2] deals with T3, recombinant 15-LOX enzyme (Homo sapiens, UniProt P16050).
T3 sequence (P16050 1-662): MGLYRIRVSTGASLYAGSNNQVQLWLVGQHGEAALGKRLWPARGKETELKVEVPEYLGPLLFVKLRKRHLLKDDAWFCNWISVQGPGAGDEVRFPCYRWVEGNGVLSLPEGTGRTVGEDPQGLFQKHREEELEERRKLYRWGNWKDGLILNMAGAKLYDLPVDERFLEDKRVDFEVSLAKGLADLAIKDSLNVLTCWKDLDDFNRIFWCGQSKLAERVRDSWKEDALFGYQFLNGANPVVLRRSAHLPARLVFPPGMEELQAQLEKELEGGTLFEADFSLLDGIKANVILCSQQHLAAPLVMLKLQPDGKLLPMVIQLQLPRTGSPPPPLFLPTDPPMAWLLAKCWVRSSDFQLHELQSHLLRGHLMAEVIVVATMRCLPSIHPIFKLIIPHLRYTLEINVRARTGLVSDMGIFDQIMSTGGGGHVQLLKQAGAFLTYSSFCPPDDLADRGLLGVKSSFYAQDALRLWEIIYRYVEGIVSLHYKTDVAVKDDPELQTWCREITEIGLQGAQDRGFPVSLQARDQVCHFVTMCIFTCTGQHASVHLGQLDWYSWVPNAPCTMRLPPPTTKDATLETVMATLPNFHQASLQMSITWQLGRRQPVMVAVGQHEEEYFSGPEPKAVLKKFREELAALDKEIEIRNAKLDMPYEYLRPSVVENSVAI
Description: 15-LOX fluorescent assay. The following applies: several values in one cell = repeat determinations. On the procedure: as §1, §2

Where [3] appears, read: IC50 (μM) values for in vitro lipoxygenase inhibition, 15-LOX.
Setting [4] is: read-out: IC50 (μM) values for in vitro lipoxygenase inhibition, 15-LOX.

Where “and” joins values, the source holds several entries; their conditions need not be identical. Equal entries are not always repeated. Structures can show the parent of a compound that is named as a salt. Where two headings read alike, the source gives them in different places.

Usually IC50 stands for the concentration at which inhibition is half-maximal. With `c1ccc(-c2c(NCCn3cncn3)ccc3c2[nH]c2ccccc23)cc1` [SS20308-0085-01, N-(2-(1H-1,2,4-triazol-1-yl)ethyl)-1-phenyl-9H-carbazol-2-amine], the concentration for half-maximal inhibition (IC50) was 0.57 µM and 1.6 µM on recombinant 5-LOX; 0.32 µM and 0.92 µM in assay [1]; 1.19 µM and 2.23 µM in assay [2] (setting [3]).

`CN(C)CCOc1c2[nH]c3ccccc3c2cc2[nH]c3ccccc3c12` [SS20308-0065-01, 2-(5,11-dihydroindolo[3,2-b]carbazol-6-yloxy)-N,N-dimethylethanamine]: the IC50 is 0.01 µM and 0.04 µM on recombinant 5-LOX; 0.02 µM and 0.06 µM in assay [1]; 0.03 µM in assay [2] (setting [4]).

`CN(C)CCOc1c(Nc2ccccc2)ccc2c1[nH]c1ccc(F)cc12` [SS20308-0032-01, 1-(2-(dimethylamino)ethoxy)-6-fluoro-N-phenyl-9H-carbazol-2-amine]: the IC50 is 0.27 µM at recombinant 5-LOX, 0.21 µM in assay [1] and 15.9 µM in assay [2] (setting [4]).

With `CN(C)CC1(COc2c3[nH]c4ccc(F)cc4c3c(F)c3[nH]c4ccc(F)cc4c23)COC1` [SS20308-0185-01, N,N-dimethyl-1-(3-((2,8,12-trifluoro-5,11-dihydroindolo[3,2-b]carbazol-6-yloxy)methyl)oxetan-3-yl)methanamine], the IC50 amounted to 0.08 µM on recombinant 5-LOX, 0.1 µM in assay [1] and 0.05 µM in assay [2] (setting [4]).

As for `COc1cccc2c1[nH]c1ccc(F)cc12` [SS20308-0002-01, 6-fluoro-1-methoxy-9H-carbazole], the IC50 stood at 20.8 µM on recombinant 5-LOX, 8.04 µM in assay [1] and 4.33 µM in assay [2] (setting [4]).

Take `CN(C)CCc1cc(Nc2ccc(F)cc2Cl)cc2c1[nH]c1ccccc12` [SS20308-0277-01, N-(2-chloro-4-fluorophenyl)-1-(2-(dimethylamino)ethyl)-9H-carbazol-3-amine]: the results for the half-maximal inhibitory concentration (IC50) (on recombinant 5-LOX; in assay [1]; in assay [2] (setting [4])) were 0.32 µM, 0.04 µM and 0.57 µM, respectively.

For `CN(C)CCOc1c(N)cc(Cl)c2c1[nH]c1ccc(F)cc12` [SS20308-0069-01, 4-chloro-1-(2-(dimethylamino)ethoxy)-6-fluoro-9H-carbazol-2-amine], the IC50 at recombinant 5-LOX was found to be 14.8 µM; in assay [1], 7.93 µM; in assay [2] (setting [4]), 8.34 µM.

Regarding `CN(C)CCOc1cc2c3ccccc3[nH]c2c2[nH]c3ccccc3c12` [SS20308-0103-01, 2-(11,12-dihydroindolo[2,3-a]carbazol-5-yloxy)-N,N-dimethylethanamine], the IC50 at recombinant 5-LOX amounted to 0.02 µM; in assay [1], 2.23 µM; in assay [2] (setting [4]) it was 0.06 µM.

On to `CN(C)CCOc1c(NCc2ccccc2)ccc2c1[nH]c1ccc(F)cc12` [SS20308-0036-01, N-benzyl-1-(2-(dimethylamino)ethoxy)-6-fluoro-9H-carbazol-2-amine], for which the IC50 at recombinant 5-LOX is 0.35 µM; in assay [1], 0.4 µM; in assay [2] (setting [4]), 0.8 µM.

For the compound `CN(C)CCOc1c(CNc2ccccc2)ccc2c1[nH]c1ccccc12` [SS20308-0086-01, N-((1-(2-(dimethylamino)ethoxy)-9H-carbazol-2-yl)methyl)aniline], the results for the IC50 (on recombinant 5-LOX; in assay [1]; in assay [2] (setting [4])) were 0.62 µM, 0.87 µM and 0.42 µM, respectively.

On to `CN(C)CCCc1c(O)ccc2c1[nH]c1ccc(F)cc12` [SS20308-0068-01, 1-(3-(dimethylamino)propyl)-6-fluoro-9H-carbazol-2-ol], for which the concentration for half-maximal inhibition (IC50) on recombinant 5-LOX is 5.63 µM; in assay [1], 0.77 µM; in assay [2] (setting [3]) it was 1.76 µM.

As to `CN(C)CCc1cc(Nc2cccc(Cl)c2)cc2c1[nH]c1ccccc12` [SS20308-0258-01, N-(3-chlorophenyl)-1-(2-(dimethylamino)ethyl)-9H-carbazol-3-amine], the IC50 on recombinant 5-LOX was 0.06 µM and 0.08 µM; in assay [1] it was 0.16 µM; in assay [2] (setting [4]) it was 0.09 µM and 0.55 µM.

With `Clc1c(NCCn2cncn2)ccc2c1Nc1ccccc1CC2` [SS20308-0273-01, N-(2-(1H-1,2,4-triazol-1-yl)ethyl)-4-chloro-10,11-dihydro-5H-dibenzo [b,f]azepin-3-amine], the IC50 at recombinant 5-LOX came to 5.6 µM; in assay [1], 2.66 µM; in assay [2] (setting [4]), 9.82 µM.

As for `CN(C)CCOc1c2c(cc3[nH]c4ccccc4c13)[nH]c1ccccc12` [SS20308-0063-01, 2-(5,7-dihydroindolo[2,3-b]carbazol-12-yloxy)-N,N-dimethylethanamine], the IC50 is 0.53 µM and 0.69 µM on recombinant 5-LOX; 0.46 µM and 0.56 µM in assay [1]; 0.29 µM and 0.9 µM in assay [2] (setting [3]).

Turning to `Fc1ccc2[nH]c3cc4c(cc3c2c1)CCN4CCn1cncn1` [SS20308-0208-01, 1-(2-(1H-1,2,4-triazol-1-yl)ethyl)-6-fluoro-1,2,3,9-tetrahydropyrrolo[2,3-b]carbazole], the IC50 is 0.2 µM at recombinant 5-LOX, 0.01 µM in assay [1] and 0.18 µM in assay [2] (setting [4]).

As to `CN(C)CCOc1c(-c2ccccc2N)ccc2c1[nH]c1ccccc12` [SS20308-0073-01, 2-(1-(2-(dimethylamino)ethoxy)-9H-carbazol-2-yl)aniline dihydrochloride], the IC50 is 14.4 µM on recombinant 5-LOX, 49.2 µM in assay [1] and 26.1 µM in assay [2] (setting [3]).

On to `c1ccc(-c2cc(NCCCn3cncn3)cc3c2[nH]c2ccccc23)cc1` [SS20308-0111-01, N-(3-(1H-1,2,4-triazol-1-yl)propyl)-1-phenyl-9H-carbazol-3-amine], for which the IC50 came to 20.3 µM at recombinant 5-LOX, 44.9 µM in assay [1] and 0.09 µM in assay [2] (setting [4]).

(Values after patent US20230174485A1, “LIPOXYGENASE INHIBITORS” (SRI International, priority 2020, published 2023).)
